Reference: patent US10590128B2, “6,7,8,9-tetrahydro-5H-pyrido[2,3-d]azepine dopamine D3 ligands” (Pfizer Inc., priority 2016, dated 2020)

Legend:
[1] = molecular target: human dopamine D3 receptor (hD3R) (Homo sapiens, UniProt P35462); experiment: Human D3 receptor binding assay ([^3H]-7-OH-DPAT); conditions: CHO cells expressing hD3R, geometric mean of 2-5 determinations unless marked b (single determination), read-out: hD3 in CHO cells Ki
Procedure: (§1) Human D2 Receptor and Human D3 Receptor Binding Assays:
(§2) These determined ligand and tissue concentrations were utilized in time course studies to determine linearity and equilibrium conditions for binding. […] The hD2R assay buffer contains 50 mM Tris (pH 7.4 @ 37° C.), 100 mM NaCl and 1 mM MgCl2. The hD3R assay buffer consists of 50 mM Tris (pH 7.4 at 37° C.), 120 mM NaCl, 5 mM MgCl2, 5 mM KCl and 2 mM CaCl2. Competitive binding experiments were initiated by the addition of 200 μL of the respective cell homogenate to 96-well plates containing […] test drugs (10 concentrations using ½ log dilutions) and 50 μL of ^3H-radioligand for a final volume of 250 μL. Non-specific binding was determined by radioligand binding in the presence of a saturating concentration of Haldol (10 μM). After the 20 minute incubation at 37° C., assay samples were rapidly filtered through Unifilter-96 GF/B PEI-coated filter plates and rinsed with ice-cold 50 mM Tris buffer (pH 7.4 at 4° C.). […] The IC50 value (concentration at which 50% inhibition of specific binding occurs) was calculated by linear regression of the concentration-response data in ActivityBase. Ki values were then calculated according to the Cheng-Prusoff equation:
(§3) [formula] where [L]=concentration of free radioligand and Kd=dissociation constant of radioligand for D3 receptor or D2 receptor.

[2] = molecular target: human dopamine D2 receptor (hD2R) (Homo sapiens, UniProt P14416); experiment: Human D2 receptor binding assay ([^3H]-Spiperone); conditions: CHO cells expressing hD2R, geometric mean of 2-5 determinations unless marked b (single determination)
Sequence of human dopamine D2 receptor (hD2R) (P14416 whole entry): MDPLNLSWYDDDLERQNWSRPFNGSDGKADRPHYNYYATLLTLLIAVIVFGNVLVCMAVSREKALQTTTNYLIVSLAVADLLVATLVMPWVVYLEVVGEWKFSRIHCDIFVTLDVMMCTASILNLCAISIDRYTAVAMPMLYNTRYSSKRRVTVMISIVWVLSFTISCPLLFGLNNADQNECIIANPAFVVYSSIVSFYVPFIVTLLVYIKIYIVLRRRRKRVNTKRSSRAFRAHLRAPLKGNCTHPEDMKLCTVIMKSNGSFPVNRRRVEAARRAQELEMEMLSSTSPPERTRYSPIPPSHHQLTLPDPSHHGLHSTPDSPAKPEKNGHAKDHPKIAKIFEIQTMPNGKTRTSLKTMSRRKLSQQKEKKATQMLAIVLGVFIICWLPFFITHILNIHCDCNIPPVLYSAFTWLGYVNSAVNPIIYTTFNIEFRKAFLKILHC
Procedure: as §1, §2, §3

Sequence of human dopamine D3 receptor (hD3R) (P35462 whole entry): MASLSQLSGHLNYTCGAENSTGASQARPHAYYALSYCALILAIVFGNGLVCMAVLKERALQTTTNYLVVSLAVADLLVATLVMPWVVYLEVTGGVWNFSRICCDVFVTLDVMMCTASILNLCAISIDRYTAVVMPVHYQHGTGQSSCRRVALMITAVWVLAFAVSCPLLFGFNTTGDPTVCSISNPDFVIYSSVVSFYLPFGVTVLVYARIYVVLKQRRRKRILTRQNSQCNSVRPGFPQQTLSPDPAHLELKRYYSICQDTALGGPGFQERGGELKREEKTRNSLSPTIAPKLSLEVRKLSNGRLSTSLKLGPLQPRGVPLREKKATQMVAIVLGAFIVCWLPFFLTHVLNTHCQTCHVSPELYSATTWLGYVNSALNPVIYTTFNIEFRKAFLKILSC

SMILES | Ki [1] | Ki [2]
COc1nc2c(cc1NS(=O)(=O)c1ccc(C3CC(F)(F)CCO3)cc1)CCN(C)CC2 (single isomer, unassigned) [Example 42] | 5.91 nM | 402 nM
COc1nc2c(cc1NS(=O)(=O)c1ccc(Cl)cc1)CCN(C)CC2 [Example 27, 4-chloro-N-(2-methoxy-7-methyl-6,7,8,9-tetrahydro-5H-pyrido[2,3-d]azepin-3-yl)benzenesulfonamide] | 3.26 nM | 400 nM
CCCN1CCc2cc(NS(=O)(=O)c3ccc(C(C)C)cc3)c(OC(F)F)nc2CC1 [Example 12, N-[2-(Difluoromethoxy)-7-propyl-6,7,8,9-tetrahydro-5H-pyrido[2,3-d]azepin-3-yl]-4-(propan-2-yl)benzenesulfonamide] | 281 nM | 260 nM
COc1nc2c(cc1NS(=O)(=O)c1ccc(C3(F)CCCC3)nc1)CCN(C)CC2 [Example 11, 6-(1-fluorocyclopentyl)-N-(2-methoxy-7-methyl-6,7,8,9-tetrahydro-5H-pyrido[2,3-d]azepin-3-yl)pyridine-3-sulfonamide] | 3.31 nM | 106 nM
COc1nc2c(cc1NS(=O)(=O)c1cnc(C3CCC3)c(F)c1)CCN(C)CC2 [Example 24, 6-cyclobutyl-5-fluoro-N-(2-methoxy-7-methyl-6,7,8,9-tetrahydro-5H-pyrido[2,3-d]azepin-3-yl)pyridine-3-sulfonamide] | 4.2 nM | 232 nM
CCN1CCc2cc(NS(=O)(=O)c3ccc(C4(C)CCOCC4)cc3)c(OC)nc2CC1 [Example 69, N-(7-ethyl-2-methoxy-6,7,8,9-tetrahydro-5H-pyrido[2,3-d]azepin-3-yl)-4-(4-methyltetrahydro-2H-pyran-4-yl)benzenesulfonamide] | 4.77 nM | 392 nM
CCOc1ccc(S(=O)(=O)Nc2cc3c(nc2C)CCN(CC)CC3)cc1 [Example 137, 4-Ethoxy-N-(7-ethyl-2-methyl-6,7,8,9-tetrahydro-5H-pyrido[2,3-d]azepin-3-yl)benzenesulfonamide] | 152 nM | > 4190 nM
CCN1CCc2cc(NS(=O)(=O)c3ccc([C@H]4C[C@@H](OC)C4)cc3)c(OC)nc2CC1 [Example 72, N-(7-ethyl-2-methoxy-6,7,8,9-tetrahydro-5H-pyrido[2,3-d]azepin-3-yl)-4-(cis-3-methoxycyclobutyl)benzenesulfonamide] | 2.65 nM | 420 nM
CCN1CCc2cc(NS(=O)(=O)c3ccc([C@]4(O)C[C@@H](OC)C4)nc3)c(OC)nc2CC1 [Example 23, N-(7-ethyl-2-methoxy-6,7,8,9-tetrahydro-5H-pyrido[2,3-d]azepin-3-yl)-6-(cis-1-hydroxy-3-methoxycyclobutyl)pyridine-3-sulfonamide] | > 459 nM | > 4600 nM
CCO[C@H]1C[C@@](F)(c2ccc(S(=O)(=O)Nc3cc4c(nc3OC)CCN(CC)CC4)cc2)C1 [Example 48, 4-(trans-3-ethoxy-1-fluorocyclobutyl)-N-(7-ethyl-2-methoxy-6,7,8,9-tetrahydro-5H-pyrido[2,3-d]azepin-3-yl)benzenesulfonamide] | 7.25 nM | 933 nM
COc1nc2c(cc1NS(=O)(=O)c1ccc(C3CCC3)nc1)CCN(C)CC2 [Example 113, 6-cyclobutyl-N-(2-methoxy-7-methyl-6,7,8,9-tetrahydro-5H-pyrido[2,3-d]azepin-3-yl)pyridine-3-sulfonamide] | 3.94 nM | 143 nM
COc1nc2c(cc1NS(=O)(=O)c1ccc(C3CCOC3)cc1)CCN(C)CC2 (centres unmarked) [Example 36, N-(2-methoxy-7-methyl-6,7,8,9-tetrahydro-5H-pyrido[2,3-d]azepin-3-yl)-4-(tetrahydrofuran-3-yl)benzenesulfonamide] | 3.29 nM | 260 nM

Compounds with a lower Ki [1], results first:

Ki [1] | Ki [2] | SMILES
2.47 nM | 428 nM | COc1nc2c(cc1NS(=O)(=O)c1ccc([C@]3(F)C[C@H](OCCF)C3)cc1)CCN(C)CC2 [Example 133, 4-[trans-1-fluoro-3-(2-fluoroethoxy)cyclobutyl]-N-(2-methoxy-7-methyl-6,7,8,9-tetrahydro-5H-pyrido[2,3-d]azepin-3-yl)benzenesulfonamide]
1.46 nM | 4.05 nM | CCN1CCc2cc(NS(=O)(=O)c3cnc(OC4CCCC4)c(C)c3)c(OC)nc2CC1 [Example 125, 6-(cyclopentyloxy)-N-(7-ethyl-2-methoxy-6,7,8,9-tetrahydro-5H-pyrido[2,3-d]azepin-3-yl)-5-methylpyridine-3-sulfonamide]
1.69 nM | 25.2 nM | COc1nc2c(cc1NS(=O)(=O)c1cnc(OC3CCCC3)c(F)c1)CCN(C)CC2 [Example 130, 6-(cyclopentyloxy)-5-fluoro-N-(2-methoxy-7-methyl-6,7,8,9-tetrahydro-5H-pyrido[2,3-d]azepin-3-yl)pyridine-3-sulfonamide]
0.48 nM | 3.21 nM | COc1nc2c(cc1NS(=O)(=O)c1ccc(OC3CCCC3)cc1)CCN(C)CC2 [Example 46, 4-(cyclopentyloxy)-N-(2-methoxy-7-methyl-6,7,8,9-tetrahydro-5H-pyrido[2,3-d]azepin-3-yl)benzenesulfonamide]
1.53 nM | 104 nM | COc1nc2c(cc1NS(=O)(=O)c1ccc(C3CCOCC3)cc1)CCN(C)CC2 [Example 4, N-(2-Methoxy-7-methyl-6,7,8,9-tetrahydro-5H-pyrido[2,3-d]azepin-3-yl)-4-(tetrahydro-2H-pyran-4-yl)benzenesulfonamide]
1.27 nM | 25 nM | COc1nc2c(cc1NS(=O)(=O)c1ccc([C@H]3CCCCO3)c(F)c1)CCN(C)CC2 [Example 110, 3-fluoro-N-(2-methoxy-7-methyl-6,7,8,9-tetrahydro-5H-pyrido[2,3-d]azepin-3-yl)-4-[(2R)-tetrahydro-2H-pyran-2-yl]benzenesulfonamide]
0.89 nM | 55 nM | CCN1CCc2cc(NS(=O)(=O)c3ccc(C4CC4)cc3)c(OC)nc2CC1 [Example 30, 4-cyclopropyl-N-(7-ethyl-2-methoxy-6,7,8,9-tetrahydro-5H-pyrido[2,3-d]azepin-3-yl)benzenesulfonamide]
2.42 nM | 89.9 nM | CCN1CCc2cc(NS(=O)(=O)c3ccc([C@H]4C[C@@H](OCCF)C4)cc3)c(OC)nc2CC1 [Example 119, N-(7-ethyl-2-methoxy-6,7,8,9-tetrahydro-5H-pyrido[2,3-d]azepin-3-yl)-4-[cis-3-(2-fluoroethoxy)cyclobutyl]benzenesulfonamide]
0.48 nM | 21.2 nM | CCN1CCc2cc(NS(=O)(=O)c3ccc4c(c3)CCC(C)(C)O4)c(OC)nc2CC1 [Example 64, N-(7-ethyl-2-methoxy-6,7,8,9-tetrahydro-5H-pyrido[2,3-d]azepin-3-yl)-2,2-dimethyl-3,4-dihydro-2H-chromene-6-sulfonamide]
0.714 nM | 13.3 nM | COc1nc2c(cc1NS(=O)(=O)c1ccc(OC3CCCC3)nc1)CCN(C)CC2 [Example 15, 6-(cyclopentyloxy)-N-(2-methoxy-7-methyl-6,7,8,9-tetrahydro-5H-pyrido[2,3-d]azepin-3-yl)pyridine-3-sulfonamide]
1.26 nM | 338 nM | CCN1CCc2cc(NS(=O)(=O)c3ccc([C@H]4C[C@H](OC)C4)cc3)c(OC)nc2CC1 [Example 68, N-(7-ethyl-2-methoxy-6,7,8,9-tetrahydro-5H-pyrido[2,3-d]azepin-3-yl)-4-(trans-3-methoxycyclobutyl)benzenesulfonamide]
2.33 nM | 176 nM | COc1nc2c(cc1NS(=O)(=O)c1ccc(C(F)(F)C3CCCC3)nc1)CCN(C)CC2 [Example 47, 6-[cyclopentyl(difluoro)methyl]-N-(2-methoxy-7-methyl-6,7,8,9-tetrahydro-5H-pyrido[2,3-d]azepin-3-yl)pyridine-3-sulfonamide]
0.32 nM | 3.2 nM | COc1nc2c(cc1NS(=O)(=O)c1ccc(C3CCCCC3)cc1)CCN(C)CC2 [Example 45, 4-cyclohexyl-N-(2-methoxy-7-methyl-6,7,8,9-tetrahydro-5H-pyrido[2,3-d]azepin-3-yl)benzenesulfonamide]
1.79 nM | 131 nM | CCN1CCc2cc(NS(=O)(=O)c3ccc([C@@H]4CCCCO4)c(F)c3)c(OC)nc2CC1 [Example 43, N-(7-ethyl-2-methoxy-6,7,8,9-tetrahydro-5H-pyrido[2,3-d]azepin-3-yl)-3-fluoro-4-[(2S)-tetrahydro-2H-pyran-2-yl]benzenesulfonamide]
1.39 nM | 65.5 nM | COc1nc2c(cc1NS(=O)(=O)c1ccc([C@H]3CCCCO3)cc1)CCN(C)CC2 [Example 7, N-(2-Methoxy-7-methyl-6,7,8,9-tetrahydro-5H-pyrido[2,3-d]azepin-3-yl)-4-[(2R)-tetrahydro-2H-pyran-2-yl]benzenesulfonamide]
2.53 nM | 39.8 nM | CCOC1CC(c2ccc(S(=O)(=O)Nc3cc4c(nc3OC)CCN(CC)CC4)cc2)C1 (stereo not drawn) [Example 121, 4-(trans-3-ethoxycycyclobutyl)-N-(7-ethyl-2-methoxy-6,7,8,9-tetrahydro-5H-pyrido[2,3-d]azepin-3-yl)benzenesulfonamide]
